From publication PMC7728077, “Double-Headed Cationic Lipopeptides: An Emerging Class of Antimicrobials” (International Journal of Molecular Sciences, 2020)
Peptide text beside a SMILES is read from it. * marks the point of attachment. Palmitoyl = CCCCCCCCCCCCCCCC(=O)*

Assays:
[1] = system: lipopolysaccharide (LPS) E. coli 055:B5; assay: Isothermal titration calorimetry, binding to LPS; conditions: ITC, two sets of sites model
Description: Isothermal titration calorimetry (ITC) experiments were carried out at 298.15 K using an AutoITC isothermal titration calorimeter (MicroCal Inc., GE Healthcare, Northampton, MA, USA) equipped with a 1.4491 mL sample cell and a reference cell. A typical ITC experiment involved a series of consecutive injections of 10.02 µL aliquots of the titrant (2 µL for the first injection only) into the reaction cell, at an interval of 4 min. The stirrer speed was constantly kept at 300 rpm to provide thorough mixing inside the reaction cell. Three types of ITC experiments were performed. These included lipopeptides binding to POPG, POPC, and LPS. […] Final results were evaluated with an ITC module for ORIGIN 7 software, provided by MicroCal, Inc. (Northampton, MA, USA). The binding constant, stoichiometry, and enthalpy of interactions were directly determined from ITC experiment by fitting one of the built-in curve fitting models to the experimental data points. Changes in entropy (∆S°) and the Gibbs free energy (∆G°) were calculated from the following equation: ∆G^°=−RTln(55.5Ka)=∆H^°−T∆S^° where 55.5 is the molar concentration of water, R is the gas constant (1.986 cal·mol^−1·K^−1), and T is the absolute temperature.

E. coli = assay: LIVE/DEAD SYTO9/PI bacterial viability staining, fluorescence microscopy; assay type: cell-based, Escherichia coli; conditions: 4, 8 and 16 µg/mL (1×, 2×, 4× MIC); at least two independent replicates
Description: Bacteria were inoculated in the Luria–Bertani medium and cultured with shaking at 37 °C up to the early exponential phase (A600 = 0.1). Then, 1.5 mL of the cultures were transferred to 5 mL Eppendorf tubes and treated with suitable peptides added at concentrations of 1×, 2×, or 4× MIC. For the negative control, bacteria were treated with a pure vehicle (water). Next, the cells were cultured for 1 or 2 h, as indicated. To obtain a positive control, at the end of the incubation, one portion of bacteria was collected and suspended in 200 µL of 70% ethanol for 5 min. After incubation, bacteria were collected by centrifugation (10 min, 3000× g) and washed twice with 0.85% NaCl. To determine membrane integrity, bacteria were stained with a LIVE/DEAD™ BacLight™ Bacterial Viability Kit (Thermo Fisher Scientific, Waltham, MA, USA) containing two dyes, i.e., a bacterial membrane permeable SYTO9 (green fluorescence) and an impermeable propidium iodide (red fluorescence) that stains only bacteria with damaged membrane. The staining was performed according to the manufacturer instructions. Then, bacteria were collected by centrifugation and washed twice with 0.85% NaCl. Bacteria pellets were suspended in 10 µL of 0.85% NaCl. Next, 3 µL of each suspension were spotted on agarose pads, covered with coverslips and immediately imaged using fluorescence microscope (Leica DMI4000B) with 100× objective. […]

[2] = NMR DOSY, 700 MHz
Description: NMR spectra were recorded on a Bruker AVANCE III 700 MHz spectrometer. The size of lipopeptide assemblies was determined by an NMR method measuring the self-diffusion coefficient (DOSY experiments). The lipopeptide self-diffusion coefficient, D, was measured by attenuation of the spin-echo signal intensity (I) as a function of gradient amplitude (g), expressed by the Stejskal–Tanner formula, I = I0exp[−Dg^2γ^2 δ^2(∆ − δ/3)] [39], where I0 is the echo intensity in the absence of the field gradient pulse, γ = 2.675 × 10^8 rad T^−1 s^−1 is the gyromagnetic ratio of the ^1H nucleus, δ is the duration of the field gradient pulse, and ∆ is the time period between two field gradient pulses. […] The spectra were processed and analyzed using Topspin 3.2 (Bruker, Billerica, MA, USA).

CCCCCCCCCCCCCCCC(=O)NCCCC[C@H](NC(=O)[C@H](CCCCN)NC(=O)[C@@H](N)CCCCN)C(=O)N[C@@H](CCCCN)C(=O)N[C@@H](CCCCN)C(N)=O [KK(KC16)KK-NH2] (H-KKK(Palmitoyl)KK-NH2)
pKITC1, LPS E. coli 055:B5 ([1]; site 1): 7.67 ± 0.29
pKITC2, LPS E. coli 055:B5 ([1]; site 2): 6.38 ± 0.14
membrane integrity of E. coli cells (SYTO9/PI staining) (E. coli): smaller number of red-stained cells than in the case of S. epidermidis

CCCCCCCCCCCCCCCC(=O)NCCC[C@H](NC(=O)[C@@H](N)CCCCN)C(=O)N[C@@H](CCCCN)C(N)=O [K(OC16)K-NH2]
first breakpoint of self-diffusion coefficient vs. concentration (premicellar state) [2]: around 6 mM
second breakpoint of self-diffusion coefficient vs. concentration (micellar state) [2]: around 9 mM
